Legend:
[1] = molecular target: T1, Native human Factor XIa protease (Homo sapiens, UniProt P03951); assay: Inhibition of activity of Factor XIa protease (chromogenic substrate S-2366); format: biochemical; settings: S-2366 1 mM, 37° C. 10 minutes, absorption at 405 nm
T1 construct: The Native human Factor XIa protease was purchased from Abcam; purchased Abcam ab62411
Source text: The following method was used to determine an inhibition degree of the compound of the present invention on an activity of Native human Factor XIa protease in vitro. In the method, a Factor XIa chromogenic substrate was used to test the inhibition degree on the activity of the Factor XIa protease. The Native human Factor XIa protease was purchased from Abcam (article number ab62411), and S-2366 was purchased from Chromogenix (article number 82109039). An experimental process was briefly described as follows: a test compound was dissolved in DMSO to prepare a 10 mM storage solution first, then the compound was diluted with a Factor XIa reaction buffer (100 mM Tris-HCl, 200 mM NaCl, 0.02% Tween 20, pH 7.4) by a quadruple gradient, and a final concentration of the test compound in a reaction system ranged from 10,000 nM to […]. The reaction was carried out in a 384-well microplate. 2 μL of the test compounds at different concentrations diluted with the reaction buffer were added to wells first, and 2 μL of 1% DMSO (a final concentration of DMSO in the reaction system was 0.1%) was used to replace blank and control wells. Subsequently, 8 μL of enzyme working solution (a final concentration of Factor XIa was […]) was added to each well, and 8 μL of Factor XIa reaction buffer was used to replace the blank well, centrifuged for 30 seconds, and incubated on ice for 5 minutes. Finally, 10 μL of substrate working solution (a final concentration of S-2366 was 1 mM) was added to each well, and centrifuged for 30 seconds, and the reaction was started. The solution was incubated at 37° C. for 10 minutes to determine a light absorption value at 405 nm. By comparing with a light absorption value of the control group (0.1% DMSO), a percentage inhibition rate of the compound at each concentration was calculated, and nonlinear regression analysis was carried out on value-inhibition rate with the concentration of the compound by GraphPad Prism 5 software, so as to obtain an IC50 value of the compound, as shown in Table 1.

human plasma = assay: In-vitro anticoagulation on human plasma (APTT kit, coagulation time); settings: concentration of the compound when the coagulation time (APTT) was prolonged twice
Experimental: The following method was used to determine the in-vitro anticoagulation of the compound of the present invention in the human plasma. In the method, an APTT kit of the MediRox company was used to test. The APTT kit was purchased from MediRox (article number MRX930), and the human plasma was prepared internally.
The preparation of the human plasma was briefly described as follows: human plasma was collected in a blood collection tube containing sodium citrate, and centrifuged at 3,000 rpm for 10 minutes at room temperature, and plasma was collected, and packaged separately and stored at −80° C.
An APTT test process was briefly described as follows: a test compound was dissolved in DMSO to prepare a 10 mM storage solution first, then the test compound was diluted with DMSO by a triple gradient, and a final concentration of the test compound in a reaction system ranged from 217 μM to 0.03 μM. 4 μL, of test compounds at different concentrations diluted with DMSO were added to a centrifuge tube containing 180 μL of plasma, and 4 μL of DMSO was added to a blank group, shaken and mixed evenly, and incubated at 37° C. for 5 minutes. Subsequently, an APTT reagent was placed in a reagent holder according to instrument requirements, the incubated plasma sample was placed in a detection position of a coagulation analyzer, and a coagulation time was determined and recorded (s). With a final concentration of the compound as an abscissa and Ratio (Ratio=TiT0, wherein T0 was a coagulation time of a blank control, and Ti was a coagulation time of a compound to be tested) as an ordinate, a coagulation dose-effect curve was drawn by Graph Pad Prisms, and a concentration of the compound when the coagulation time was prolonged twice was calculated, which was namely a CT2 value, as shown in Table 2.

T1 sequence (P03951 388-625 limits assumed): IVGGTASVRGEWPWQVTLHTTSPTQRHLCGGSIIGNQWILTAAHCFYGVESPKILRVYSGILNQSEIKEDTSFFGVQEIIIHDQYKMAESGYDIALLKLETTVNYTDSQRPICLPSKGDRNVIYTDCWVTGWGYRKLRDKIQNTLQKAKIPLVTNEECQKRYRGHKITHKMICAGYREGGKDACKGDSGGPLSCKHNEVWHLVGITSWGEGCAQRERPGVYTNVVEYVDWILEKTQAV
T1 sequence (P03951 19-387 partner limits assumed): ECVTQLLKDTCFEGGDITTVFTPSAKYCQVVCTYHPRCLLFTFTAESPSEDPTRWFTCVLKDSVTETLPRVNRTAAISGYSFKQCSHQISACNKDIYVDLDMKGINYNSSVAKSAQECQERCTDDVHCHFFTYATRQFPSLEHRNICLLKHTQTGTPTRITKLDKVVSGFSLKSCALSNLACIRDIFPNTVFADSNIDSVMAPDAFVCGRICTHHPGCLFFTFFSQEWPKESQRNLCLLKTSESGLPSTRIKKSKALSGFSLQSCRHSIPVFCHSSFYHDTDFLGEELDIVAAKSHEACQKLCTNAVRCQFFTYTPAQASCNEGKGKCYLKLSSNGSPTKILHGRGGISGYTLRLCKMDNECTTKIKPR

| SMILES | IC50 [1] | CT2 (human plasma) |
| --- | --- | --- |
| CCOC(=O)c1ccc(NC(=O)C(Cc2ccccc2)N2CC(=O)N(c3cc(Cl)ccc3-n3cnnn3)CC2=O)cc1 (centres unmarked) [Example 4, Ethyl 4-(2-(4-(5-chloro-2-(1H-tetrazol-1-yl)phenyl)-2,5-dioxopiperazin-1-yl)-3-phenylpropanamido) benzoate] | 49.8 nM | – |
| COC(=O)N1CCc2cc(NC(=O)C(Cc3ccccc3)N3CC(=O)N(c4cc(Cl)ccc4-n4cnnn4)CC3=O)ccc21 (centres unmarked) [Example 8, Methyl 5-(2-(4-(5-chloro-2-(1H-tetrazol-1-yl)phenyl)-2,5-dioxopiperazin-1-yl)-3-phenylpropanamido)indoline-1-carboxylate] | 17.7 nM | – |
| O=C(Nc1ccc(N2CCCC2=O)cc1)C(Cc1ccccc1)N1CC(=O)N(c2cc(Cl)ccc2-n2cnnn2)CC1=O (centres unmarked) [Example 10, 2-(4-(5-Chloro-2-(1H-tetrazol-1-yl)phenyl)-2,5-dioxopiperazin-1-yl)-N-(4-(2-oxopyrrolidin-1-yl)phenyl)-3-phenylpropanamide] | 43.9 nM | – |
| N#Cc1ccc(NC(=O)C(Cc2ccccc2)N2CC(=O)N(c3cc(Cl)ccc3-n3cnnn3)CC2=O)cc1 (centres unmarked) [Example 16, 2-(4-(5-chloro-2-(1H-tetrazol-1-yl)phenyl)-2,5-dioxopiperazin-1-yl)-N-(4-cyanophenyl)-3-phenylpropanamide] | – | 15.6 µM |
| O=C(Nc1ccc2ccnn2c1)C(Cc1ccccc1)N1CC(=O)N(c2cc(Cl)ccc2-n2cnnn2)CC1=O (centres unmarked) [Example 22, 2-(4-(5-Chloro-2-(1H-tetrazol-1-yl)phenyl)-2,5-dioxopiperazin-1-yl)-3-phenyl-N-(pyrazolo[1.5-a]pyridin-6-yl)propanamide] | – | 16.0 µM |
| CNC(=O)c1ccc(NC(=O)C(Cc2ccccc2)N2CC(=O)N(c3cc(Cl)ccc3-n3cnnn3)CC2=O)cn1 (centres unmarked) [Example 29, 5-(2-(4-(5-Chloro-2-(1H-tetrazol-1-yl)phenyl)-2,5-dioxopiperazin-1-yl)-3-phenylpropanamido)-N-methylpicolinamide] | – | 6.7 µM |
| COCCC(C(=O)Nc1ccc2nn(C)cc2c1)N1CC(=O)N(c2cc(Cl)ccc2-n2cnnn2)CC1=O (centres unmarked) [Example 32, 2-(4-(5-Chloro-2-(1H-tetrazol-1-yl)phenyl)-2,5-dioxopiperazin-1-yl)-4-methoxy-N-(2-methyl-2H-indazol-5-yl)butanamide] | – | 6.3 µM |
| Cn1cc2cc(NC(=O)C(CC3CCC3)N3CC(=O)N(c4cc(Cl)ccc4-n4cnnn4)CC3=O)ccc2n1 (centres unmarked) [Example 39, 2-(4-(5-Chloro-2-(1H-tetrazol-1-yl)phenyl)-2,5-dioxopiperazin-1-yl)-3-cyclobutyl-N-(2-methyl-2H-indazol-5-yl)propanamide] | – | 12.7 µM |
| CNC(=O)c1ccc(NC(=O)C(Cc2ccccc2)N2CC(=O)N(c3cc(Cl)ccc3-n3cc(Cl)nn3)CC2=O)cc1F (centres unmarked) [Example 42, 4-(2-(4-(5-Chloro-2-(4-chloro-1H-1,2,3-triazol-1-yl)phenyl)-2,5-dioxopiperazin-1-yl)-3-phenylpropanamido)-2-fluoro-N-methylbenzamide] | – | 16.3 µM |
| Cn1cc2cc(NC(=O)C(Cc3cccnc3)N3CC(=O)N(c4cc(Cl)ccc4-n4cc(Cl)nn4)CC3=O)ccc2n1 (centres unmarked) [Example 43, 2-(4-(5-Chloro-2-(4-chloro-1H-1,2,3-triazol-1-yl)phenyl)-2,5-dioxopiperazin-1-yl)-N-(2-methyl-2H-indazol-5-yl)-3-(pyridin-3-yl)propanamide] | – | 19.6 µM |
| Cn1cc2cc(NC(=O)C(Cc3cccc(F)c3)N3CC(=O)N(c4cc(Cl)ccc4-n4cc(Cl)nn4)CC3=O)ccc2n1 (centres unmarked) [Example 46, 2-(4-(5-Chloro-2-(4-chloro-1H-1,2,3-triazol-1-yl)phenyl)-2,5-dioxopiperazin-1-yl)-3-(3-fluorophenyl)-N-(2-methyl-2H-indazol-5-yl)propanamide] | – | 19.1 µM |
| Cn1cc2cc(NC(=O)C(Cc3ccncc3)N3CC(=O)N(c4cc(Cl)ccc4-n4cc(Cl)nn4)CC3=O)ccc2n1 (centres unmarked) [Example 105, 2-(4-(5-chloro-2-(4-chloro-1H-1,2,3-triazol-1-yl)phenyl)-2,5-dioxopiperazin-1-yl)-N-(2-methyl-2H-indazol-5-yl)-3-(pyridin-4-yl)propanamide] | – | 10.1 µM |
| Cn1cc2cc(NC(=O)C(CC3CCC3)N3CC(=O)N(c4cc(Cl)ccc4-n4cc(Cl)nn4)CC3=O)ccc2n1 (centres unmarked) [Example 116, 2-(4-(5-chloro-2-(4-chloro-1H-1,2,3-triazol-1-yl)phenyl)-2,5-dioxopiperazin-1-yl)-3-cyclobutyl-N-(2-methyl-2H-indazol-5-yl)propanamide] | – | 14.0 µM |
| Cn1cc2cc(NC(=O)C(CCOC(C)(C)C)N3CC(=O)N(c4cc(Cl)ccc4-n4cc(Cl)nn4)CC3=O)ccc2n1 (centres unmarked) [Example 122, 4-(tert-butoxy)-2-(4-(5-chloro-2-(4-chloro-1H-1,2,3-triazol-1-yl)phenyl)-2,5-dioxopiperazin-1-yl)-N-(2-methyl-2H-indazol-5-yl)butanamide] | – | 18.7 µM |
| Cn1cc2cc(NC(=O)C(Cc3ccn(C4CC4)n3)N3CC(=O)N(c4cc(Cl)ccc4-n4cc(Cl)nn4)CC3=O)ccc2n1 (centres unmarked) [Example 123, 2-(4-(5-chloro-2-(4-chloro-1H-1,2,3-triazol-1-yl)phenyl)-2,5-dioxopiperazin-1-yl)-3-(1-cyclopropyl-1H-pyrazol-3-yl)-N-(2-methyl-2H-indazol-5-yl)propanamide] | – | 12.8 µM |
| Cn1cc(CC(C(=O)Nc2ccc3nn(C)cc3c2)N2CC(=O)N(c3cc(Cl)ccc3-n3cc(Cl)nn3)CC2=O)cn1 (centres unmarked) [Example 131, 2-(4-(5-chloro-2-(4-chloro-1H-1,2,3-triazol-1-yl)phenyl)-2,5-dioxopiperazin-1-yl)-3-(1-methyl-1H-pyrazol-4-yl)-N-(2-methyl-2H-indazol-5-yl)propanamide] | – | 11.5 µM |
| Cn1cc2cc(NC(=O)C(Cc3ccn(C(F)F)n3)N3CC(=O)N(c4cc(Cl)ccc4-n4cc(Cl)nn4)CC3=O)ccc2n1 (centres unmarked) [Example 132, 2-(4-(5-chloro-2-(4-chloro-1H-1,2,3-triazol-1-yl)phenyl)-2,5-dioxopiperazin-1-yl)-3-(1-(difluoromethyl)-1H-pyrazol-3-yl)-N-(2-methyl-2H-indazol-5-yl)propanamide] | – | 12.7 µM |
| [2H]C([2H])([2H])n1ccc(CC(C(=O)Nc2ccc3nn(C)cc3c2)N2CC(=O)N(c3cc(Cl)ccc3-n3cc(Cl)nn3)CC2=O)n1 (centres unmarked) [Example 133, 2-(4-(5-chloro-2-(4-chloro-1H-1,2,3-triazol-1-yl)phenyl)-2,5-dioxopiperazin-1-yl)-N-(2-methyl-2H-indazol-5-yl)-3-(1-(methyl-d3)-1H-pyrazol-3-yl)propanamide] | – | 14.8 µM |
| CNC(=O)c1ccc(NC(=O)C(Cc2ccc(F)cc2)N2CC(=O)N(c3cc(Cl)ccc3-n3cc(Cl)nn3)CC2=O)cc1F (centres unmarked) [Example 134, 4-(2-(4-(5-chloro-2-(4-chloro-1H-1,2,3-triazol-1-yl)phenyl)-2,5-dioxopiperazin-1-yl)-3-(4-fluorophenyl)propanamido)-2-fluoro-N-methylbenzamide] | – | 19.4 µM |
| NC(=O)c1ccc(NC(=O)C(Cc2ccc(F)cc2)N2CC(=O)N(c3cc(Cl)ccc3-n3cc(Cl)nn3)CC2=O)cc1F (centres unmarked) [Example 135, 4-(2-(4-(5-chloro-2-(4-chloro-1H-1,2,3-triazol-1-yl)phenyl)-2,5-dioxopiperazin-1-yl)-3-(4-fluorophenyl)propanamido)-2-fluorobenzamide] | – | 19.2 µM |

— patent publication US20230373972A1, “PIPERAZINE DERIVATIVE, PREPARATION METHOD THEREFOR AND USE THEREOF” (Zhejiang Hisun Pharmaceutical Co., Ltd., priority 2020, published 2023)
